# According to US11021493B2, “1,4-thiazine dioxide and 1,2,4-thiadiazine dioxide derivatives as beta-secretase inhibitors and methods of use” (AMGEN INC., priority 2016, dated 2021):
# How the values were obtained:
# BACE1 [1] = target: T1, BACE1 (Homo sapiens (Human), UniProt P56817); experiment: In vitro enzymatic BACE1 FRET assay; type: biochemical; conditions: read-out: BACE1 Enzyme IC50
# Target sequence in this assay (P56817 46-501): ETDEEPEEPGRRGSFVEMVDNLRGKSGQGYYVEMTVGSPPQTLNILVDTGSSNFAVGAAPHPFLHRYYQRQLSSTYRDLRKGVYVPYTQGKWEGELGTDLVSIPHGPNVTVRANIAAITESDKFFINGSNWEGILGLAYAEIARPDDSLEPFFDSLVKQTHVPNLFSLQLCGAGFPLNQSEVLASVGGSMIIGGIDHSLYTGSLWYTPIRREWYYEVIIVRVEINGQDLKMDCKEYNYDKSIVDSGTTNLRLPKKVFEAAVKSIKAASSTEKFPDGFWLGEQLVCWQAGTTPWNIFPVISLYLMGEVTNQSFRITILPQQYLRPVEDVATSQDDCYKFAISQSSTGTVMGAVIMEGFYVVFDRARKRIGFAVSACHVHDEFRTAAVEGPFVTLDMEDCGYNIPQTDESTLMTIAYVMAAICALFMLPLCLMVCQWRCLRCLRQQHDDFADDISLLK
# BACE1 [2] = target: T1, BACE1; experiment: In vitro BACE1 cell-based assay (Aβ40 in conditioned medium of cells stably expressing APP, HTRF); conditions: Aβ40 in conditioned media after 24 h incubation
# Target sequence in this assay (P56817 46-501, species assumed): as the sequence (P56817 46-501) above
# human recombinant BACE2 = human recombinant BACE2 (Homo sapiens (Human), UniProt Q9Y5Z0); experiment: In vitro enzymatic BACE2 FRET assay; type: biochemical; conditions: read-out: BACE2 Enzyme IC50
# Cathepsin D (CatD) = Cathepsin D (CatD) (Homo sapiens (Human), UniProt P07339); experiment: In vitro enzymatic Cathepsin D (CatD) FRET assay; type: biochemical; conditions: read-out: Cat D Enzyme IC50
# Sequence of Cathepsin D (CatD) (P07339 65-412, species assumed): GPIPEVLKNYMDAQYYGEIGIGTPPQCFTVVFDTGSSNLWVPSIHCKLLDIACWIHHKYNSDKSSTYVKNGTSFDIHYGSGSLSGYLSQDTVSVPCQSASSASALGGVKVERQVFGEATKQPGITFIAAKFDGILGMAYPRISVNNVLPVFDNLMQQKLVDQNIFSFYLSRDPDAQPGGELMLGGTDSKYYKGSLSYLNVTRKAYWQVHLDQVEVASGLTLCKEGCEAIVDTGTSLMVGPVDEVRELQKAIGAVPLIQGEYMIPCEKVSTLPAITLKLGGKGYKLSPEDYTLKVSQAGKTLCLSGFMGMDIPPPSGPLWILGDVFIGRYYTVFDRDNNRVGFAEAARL
# Sequence of human recombinant BACE2 (Q9Y5Z0 63-518): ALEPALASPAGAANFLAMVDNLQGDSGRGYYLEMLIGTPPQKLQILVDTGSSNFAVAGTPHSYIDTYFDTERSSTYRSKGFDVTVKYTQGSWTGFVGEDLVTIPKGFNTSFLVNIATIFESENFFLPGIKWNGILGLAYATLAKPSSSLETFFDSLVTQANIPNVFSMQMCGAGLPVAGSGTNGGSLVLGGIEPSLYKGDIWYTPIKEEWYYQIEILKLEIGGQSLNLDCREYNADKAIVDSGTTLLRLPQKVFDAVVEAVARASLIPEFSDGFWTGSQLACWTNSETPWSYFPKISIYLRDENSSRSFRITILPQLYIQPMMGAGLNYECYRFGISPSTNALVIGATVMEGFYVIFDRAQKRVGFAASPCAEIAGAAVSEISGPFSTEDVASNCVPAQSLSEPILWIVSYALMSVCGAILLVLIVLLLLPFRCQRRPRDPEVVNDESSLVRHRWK
SMILES,IC50 (BACE1 [1]) [nM],IC50 (BACE1 [2]) [nM],IC50 (human recombinant BACE2) [nM],IC50 (Cathepsin D (CatD)) [nM]
"CC#CCOc1cnc(/C(F)=C/c2ccc(F)c([C@]3(CF)CS(=O)(=O)C(C)(C)C(N)=N3)c2)cn1 [Example 194, (S,Z)-5-amino-3-(5-(2-(5-(but-2-yn-1-yloxy)pyrazin-2-yl)-2-fluorovinyl)-2-fluorophenyl)-3-(fluoromethyl)-6,6-dimethyl-3,6-dihydro-2H-1,4-thiazine 1,1-dioxide]",7,55,181,49400
"CC#C[C@@H](CC)Oc1cnc(/C(F)=C/c2ccc(F)c([C@]3(C)CS(=O)(=O)C(C)(C)C(N)=N3)c2)cn1 (single isomer, unassigned) [Example 198]",113,173,371,38300
"CC1(C)C(N)=N[C@](C)(c2cc(/C=C(\F)c3cnc(OCc4ccncc4)cn3)ccc2F)CS1(=O)=O [Example 210, (R,Z)-5-amino-3-(2-fluoro-5-(2-fluoro-2-(5-(pyridin-4-ylmethoxy)pyrazin-2-yl)vinyl)phenyl)-3,6,6-trimethyl-3,6-dihydro-2H-1,4-thiazine 1,1-dioxide]",1720,2230,476,467000
"C[C@]1(c2cc(/C=C(\F)c3cnc(OCCF)cn3)ccc2F)N=C(N)[C@@]2(CF)CC[C@@H]1S2(=O)=O [Example 133, (1R,4R,5S)-2-amino-4-(2-fluoro-5-((Z)-2-fluoro-2-(5-(2-fluoroethoxy)pyrazin-2-yl)vinyl)phenyl)-1-(fluoromethyl)-4-methyl-8-thia-3-azabicyclo[3.2.1]oct-2-ene 8,8-dioxide]",131,339,151,428000

# More lines, now with the values ahead:
IC50 (BACE1 [1]) [nM],IC50 (BACE1 [2]) [nM],IC50 (human recombinant BACE2) [nM],IC50 (Cathepsin D (CatD)) [nM],SMILES
583,1080,157,56100,"CN1C(N)=N[C@](C)(c2cc(/C=C(\F)c3ccc4c(c3)OCCO4)ccc2F)CS1(=O)=O [Example 196, (R,Z)-3-amino-5-(5-(2-(2,3-dihydrobenzo[b][1,4]dioxin-6-yl)-2-fluorovinyl)-2-fluorophenyl)-2,5-dimethyl-5,6-dihydro-2H-1,2,4-thiadiazine 1,1-dioxide]"
268,128,533,160000,"C[C@@H]1COc2nc(/C(F)=C/c3ccc(F)c([C@]4(C)CS(=O)(=O)N(C)C(N)=N4)c3)ncc2O1 [Example 235, (R)-3-amino-5-(2-fluoro-5-((Z)-2-fluoro-2-((R)-6-methyl-6,7-dihydro-[1,4]dioxino[2,3-d]pyrimidin-2-yl)vinyl)phenyl)-2,5-dimethyl-5,6-dihydro-2H-1,2,4-thiadiazine 1,1-dioxide]"
7,21,52,28300,"CN1C(N)=N[C@](C)(c2cc(/C=C(\F)c3cnc(OCC#CCF)cn3)ccc2F)CS1(=O)=O [Example 254, (R,Z)-3-amino-5-(2-fluoro-5-(2-fluoro-2-(5-((4-fluorobut-2-yn-1-yl)oxy)pyrazin-2-yl)vinyl)phenyl)-2,5-dimethyl-5,6-dihydro-2H-1,2,4-thiadiazine 1,1-dioxide]"
75,138,28,265000,"CN1C(N)=N[C@](C)(c2cc(/C=C(\F)c3ccc(F)cn3)cc(F)c2F)CS1(=O)=O [Example 270, (R,Z)-3-amino-5-(2,3-difluoro-5-(2-fluoro-2-(5-fluoropyridin-2-yl)vinyl)phenyl)-2,5-dimethyl-5,6-dihydro-2H-1,2,4-thiadiazine 1,1-dioxide]"
193,739,425,90500,"CC1(C)C(N)=N[C@](C)(c2cc(/C=C(\F)c3cnc(OCCC(F)(F)F)cn3)ccc2F)CS1(=O)=O [Example 142, (R,Z)-5-amino-3-(2-fluoro-5-(2-fluoro-2-(5-(3,3,3-trifluoropropoxy)pyrazin-2-yl)vinyl)phenyl)-3,6,6-trimethyl-3,6-dihydro-2H-1,4-thiazine 1,1-dioxide]"
